# Patent publication US11524944B2, “2-phenylpyrimidine-4-carboxamides as AHR inhibitors” (Bayer Aktiengesellschaft, priority 2017, dated 2022)
# Assays:
# Human AhR = biological target: T1, Human AhR (Homo sapiens, UniProt P35869); assay: Transactivation assay in human cell line (in vitro assay 1): antagonism; type: cell-based; conditions: U87 glioblastoma cells, AHR inducible firefly luciferase reporter (DRE), 150 μM kynurenic acid, 20 hours
# T1 construct: host or cells: U87 glioblastoma cells, stably transfected with a DRE firefly luciferase reporter and a constitutive renilla reporter
# T1 sequence (P35869 11-848): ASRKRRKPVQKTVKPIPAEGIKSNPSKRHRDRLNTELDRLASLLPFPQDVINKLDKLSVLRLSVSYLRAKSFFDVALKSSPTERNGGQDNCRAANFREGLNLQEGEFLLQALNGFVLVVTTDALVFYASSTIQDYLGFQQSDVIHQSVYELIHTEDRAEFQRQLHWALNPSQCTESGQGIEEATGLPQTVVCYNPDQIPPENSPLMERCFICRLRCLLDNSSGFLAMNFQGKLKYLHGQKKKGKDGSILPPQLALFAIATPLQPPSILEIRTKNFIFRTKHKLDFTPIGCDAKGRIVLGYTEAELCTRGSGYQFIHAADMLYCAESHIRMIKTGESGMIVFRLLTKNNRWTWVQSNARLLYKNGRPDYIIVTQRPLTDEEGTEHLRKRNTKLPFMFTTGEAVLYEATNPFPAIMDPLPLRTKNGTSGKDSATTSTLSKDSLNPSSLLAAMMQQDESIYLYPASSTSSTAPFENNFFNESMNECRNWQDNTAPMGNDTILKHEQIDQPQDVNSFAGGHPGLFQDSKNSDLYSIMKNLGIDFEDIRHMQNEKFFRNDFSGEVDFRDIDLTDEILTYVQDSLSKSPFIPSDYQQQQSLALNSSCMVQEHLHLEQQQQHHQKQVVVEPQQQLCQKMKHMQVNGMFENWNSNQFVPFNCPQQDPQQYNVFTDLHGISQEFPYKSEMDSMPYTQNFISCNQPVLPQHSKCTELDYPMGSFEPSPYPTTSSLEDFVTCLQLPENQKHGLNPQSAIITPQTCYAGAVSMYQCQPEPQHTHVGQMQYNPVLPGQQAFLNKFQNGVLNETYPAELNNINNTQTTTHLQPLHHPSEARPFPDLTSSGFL
# Protocol: (§1) Examples were tested in selected biological assays one or more times. When tested more than once, data are reported as either average values or as median values, wherein • the average value, also referred to as the arithmetic mean value, represents the sum of the values obtained divided by the number of times tested, and • the median value represents the middle number of the group of values when ranked in ascending or descending order. If the number of values in the data set is odd, the median is the middle value. If the number of values in the data set is even, the median is the arithmetic mean of the two middle values.
# Transactivation Assay in Human Cell Line (In Vitro Assay 1)
# (§2) Transactivation assay was carried out in U87 glioblastoma cells (ATCC) endogenously expressing AHR. In addition the cells were stably transfected with an AHR inducible firefly luciferase reporter gene construct that carried AHR-binding sites (DRE) in its promoter and a renilla reporter gene construct with constitutively active promoter. Kynurenic acid is an endogenous AHR activating ligand and was used to prestimulate test cells prior to testing the antagonistic properties of compounds.
# In Vitro Assay 1: Antagonism in Human Cell Line
# Firefly luciferase and Renilla activity was determined by the DualGlo Luciferase Assay System (Promega, #2920). Renilla activity was used to assess toxic effects of compounds.
# Mouse AhR = biological target: T2, Mouse AhR (Mus musculus, UniProt P30561); assay: Transactivation assay in mouse cell line (in vitro assay 2): antagonism; type: cell-based; conditions: Hepa 1c1c7 cells, AHR inducible firefly luciferase reporter (DRE), 200 μM kynurenic acid, 20 hours
# T2 sequence (P30561 1-848 P471L/N533S/M589L): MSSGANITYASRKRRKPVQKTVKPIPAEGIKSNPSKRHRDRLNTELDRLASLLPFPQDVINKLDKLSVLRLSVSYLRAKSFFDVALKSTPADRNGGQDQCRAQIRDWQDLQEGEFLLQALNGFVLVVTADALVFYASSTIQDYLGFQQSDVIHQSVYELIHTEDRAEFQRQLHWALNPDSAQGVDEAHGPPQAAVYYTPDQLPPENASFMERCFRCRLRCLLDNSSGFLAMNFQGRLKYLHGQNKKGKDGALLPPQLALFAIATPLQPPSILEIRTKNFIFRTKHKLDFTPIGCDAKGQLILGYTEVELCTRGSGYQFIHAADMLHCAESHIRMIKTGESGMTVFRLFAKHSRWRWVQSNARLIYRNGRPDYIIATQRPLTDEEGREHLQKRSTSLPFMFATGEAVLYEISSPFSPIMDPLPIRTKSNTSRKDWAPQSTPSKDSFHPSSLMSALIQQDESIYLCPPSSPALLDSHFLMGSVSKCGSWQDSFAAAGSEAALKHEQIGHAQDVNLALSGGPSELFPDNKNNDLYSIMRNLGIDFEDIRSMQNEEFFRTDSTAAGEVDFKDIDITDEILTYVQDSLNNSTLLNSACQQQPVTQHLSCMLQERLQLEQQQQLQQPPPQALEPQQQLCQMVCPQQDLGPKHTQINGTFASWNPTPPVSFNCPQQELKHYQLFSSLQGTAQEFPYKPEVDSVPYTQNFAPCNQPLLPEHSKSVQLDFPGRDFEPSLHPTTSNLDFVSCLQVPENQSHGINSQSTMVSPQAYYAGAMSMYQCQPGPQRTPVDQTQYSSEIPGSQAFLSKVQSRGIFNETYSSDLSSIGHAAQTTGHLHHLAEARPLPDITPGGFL
# Protocol: as §1
# Transactivation Assay in Mouse Cell Line (In Vitro Assay 2)
# as §2, with “Hepa 1c1c7” for “U87 glioblastoma”, “(ATCC #CRL-2026)” for “(ATCC)”, “its” for “its promoter and a renilla reporter gene construct with constitutively active”
# In Vitro Assay 2: Antagonism in Mouse Cell Line
# Firefly luciferase activity was determined by the SteadyGlo Luciferase Assay System (Promega, #E2550).
compound,measurement,setting,value
"C[C@@H](CO)NC(=O)c1cc(-c2cccc(F)c2)nc(-c2ccc(Cl)cc2)n1 [Example 10, 2-(4-Chlorophenyl)-6-(3-fluorophenyl)-N-[(2S)-1-hydroxypropan-2-yl]pyrimidine-4-carboxamide]",IC50,Human AhR,0.0353 µM
same,IC50,Mouse AhR,0.0238 µM
"C[C@@H](CO)NC(=O)c1cc(-c2ccc(Cl)cc2)nc(-c2cccc(F)c2)n1 [Example 4, 6-(4-Chlorophenyl)-2-(3-fluorophenyl)-N-[(2S)-1-hydroxypropan-2-yl]pyrimidine-4-carboxamide]",IC50,Human AhR,0.00169 µM
same,IC50,Mouse AhR,0.00338 µM
"CC(C)(O)CNC(=O)c1cc(-c2ccc(OC(F)(F)F)cc2)nc(-c2ccc(Cl)cc2)n1 [Example 14, 2-(4-chlorophenyl)-N-(2-hydroxy-2-methylpropyl)-6-[4-(trifluoromethoxy)phenyl]pyrimidine-4-carboxamide]",IC50,Human AhR,0.234 µM
same,IC50,Mouse AhR,0.148 µM
"C[C@H](CO)NC(=O)c1cc(-c2ccc(OC(F)(F)F)cc2)nc(-c2cccc(F)c2)n1 [Example 6, 2-(3-Fluorophenyl)-N-[(2R)-1-hydroxypropan-2-yl]-6-[4-(trifluoromethoxy)phenyl]pyrimidine-4-carboxamide]",IC50,Human AhR,0.0122 µM
same,IC50,Mouse AhR,0.0178 µM
"CC(C)(O)CNC(=O)c1cc(-c2ccc(OC(F)(F)F)cc2)nc(-c2cccc(F)c2)n1 [Example 7, 2-(3-Fluorophenyl)-N-(2-hydroxy-2-methylpropyl)-6-[4-(trifluoromethoxy)phenyl]pyrimidine-4-carboxamide]",IC50,Human AhR,> 20 µM
same,IC50,Mouse AhR,> 20 µM
"C[C@H](CO)NC(=O)c1cc(-c2ccc(Cl)cc2)nc(-c2cccc(F)c2)n1 [Example 2, 6-(4-Chlorophenyl)-2-(3-fluorophenyl)-N-[(2R)-1-hydroxypropan-2-yl]pyrimidine-4-carboxamide]",IC50,Human AhR,0.00588 µM
same,IC50,Mouse AhR,0.0133 µM
"C[C@@H](CO)NC(=O)c1cc(-c2ccc(OC(F)(F)F)cc2)nc(-c2ccc(Cl)cc2)n1 [Example 29, 2-(4-chlorophenyl)-N-[(2S)-1-hydroxypropan-2-yl]-6-[4-(trifluoromethoxy)phenyl]pyrimidine-4-carboxamide]",IC50,Human AhR,0.525 µM
same,IC50,Mouse AhR,0.697 µM
"CC(C)(O)CNC(=O)c1cc(-c2ccc(Cl)cc2)nc(-c2cc(Cl)cc(Cl)c2)n1 [Example 51, 6-(4-chlorophenyl)-2-(3,5-dichlorophenyl)-N-(2-hydroxy-2-methylpropyl)pyrimidine-4-carboxamide]",IC50,Human AhR,0.101 µM
same,IC50,Mouse AhR,3.09 µM
"C[C@@H](CO)NC(=O)c1cc(-c2ccc(Cl)cc2)nc(-c2ccc(F)c(Cl)c2)n1 [Example 66, 2-(3-chloro-4-fluorophenyl)-6-(4-chlorophenyl)-N-[(2S)-1-hydroxypropan-2-yl]pyrimidine-4-carboxamide]",IC50,Human AhR,0.0235 µM
same,IC50,Mouse AhR,0.148 µM
"COc1cc(F)cc(-c2nc(C(=O)N[C@@H](C)CO)cc(-c3ccc(Cl)cc3)n2)c1 [Example 76, 6-(4-chlorophenyl)-2-(3-fluoro-5-methoxyphenyl)-N-[(2S)-1-hydroxypropan-2-yl]pyrimidine-4-carboxamide]",IC50,Human AhR,0.0368 µM
same,IC50,Mouse AhR,0.0815 µM
"C[C@@H](CO)NC(=O)c1cc(-c2ccc(OC(F)(F)F)cc2)nc(-c2cccc(C#N)c2)n1 [Example 36, 2-(3-cyanophenyl)-N-[(2S)-1-hydroxypropan-2-yl]-6-[4-(trifluoromethoxy)phenyl]pyrimidine-4-carboxamide]",IC50,Human AhR,0.0184 µM
same,IC50,Mouse AhR,0.18 µM
"O=C(NC1CCCC(F)(F)C1O)c1cc(-c2ccc(OC(F)(F)F)cc2)nc(-c2cccc(F)c2)n1 (stereo not shown) [Example 80, N-(3,3-difluoro-2-hydroxycyclohexyl)-2-(3-fluorophenyl)-6-[4-(trifluoromethoxy)phenyl]pyrimidine-4-carboxamide]",IC50,Human AhR,0.00643 µM
same,IC50,Mouse AhR,0.00691 µM
"COc1ccc(-c2nc(C(=O)N[C@@H](C)CO)cc(-c3ccc(Cl)cc3)n2)cc1 [Example 63, 6-(4-chlorophenyl)-N-[(2S)-1-hydroxypropan-2-yl]-2-(4-methoxyphenyl)pyrimidine-4-carboxamide]",IC50,Human AhR,0.392 µM
same,IC50,Mouse AhR,5.15 µM
"CC(NC(=O)c1cc(-c2ccc(OC(F)(F)F)cc2)nc(-c2cccc(F)c2)n1)C(O)CO (stereo not shown) [Example 79, N-(3,4-dihydroxybutan-2-yl)-2-(3-fluorophenyl)-6-[4-(trifluoromethoxy)phenyl]pyrimidine-4-carboxamide]",IC50,Human AhR,0.0053 µM
same,IC50,Mouse AhR,0.00237 µM
"Cc1cccc(-c2nc(C(=O)N[C@@H](C)CO)cc(-c3ccc(OC(F)(F)F)cc3)n2)c1 [Example 31, N-[(2S)-1-hydroxypropan-2-yl]-2-(3-methylphenyl)-6-[4-(trifluoromethoxy)phenyl]pyrimidine-4-carboxamide]",IC50,Human AhR,0.0264 µM
same,IC50,Mouse AhR,0.0469 µM
"C[C@@H](CO)NC(=O)c1cc(-c2ccc(OC(F)(F)F)cc2)nc(-c2ccc(C(F)F)cc2)n1 [Example 42, 2-[4-(difluoromethyl)phenyl]-N-[(2S)-1-hydroxypropan-2-yl]-6-[4-(trifluoromethoxy)phenyl]pyrimidine-4-carboxamide]",IC50,Human AhR,1.1 µM
same,IC50,Mouse AhR,1.1 µM
"CC(C)(O)CNC(=O)c1cc(-c2ccc(Cl)cc2)nc(-c2ccc(F)cc2)n1 [Example 45, 6-(4-chlorophenyl)-2-(4-fluorophenyl)-N-(2-hydroxy-2-methylpropyl)pyrimidine-4-carboxamide]",IC50,Human AhR,0.0244 µM
same,IC50,Mouse AhR,0.161 µM
"Cc1cc(F)cc(-c2nc(C(=O)N[C@@H](C)CO)cc(-c3ccc(OC(F)(F)F)cc3)n2)c1 [Example 41, 2-(3-fluoro-5-methylphenyl)-N-[(2S)-1-hydroxypropan-2-yl]-6-[4-(trifluoromethoxy)phenyl]pyrimidine-4-carboxamide]",IC50,Human AhR,0.0295 µM
same,IC50,Mouse AhR,0.191 µM
"C[C@@H](CO)NC(=O)c1cc(-c2ccc(Cl)cc2)nc(-c2ccc(Cl)cc2)n1 [Example 3, 2,6-Bis(4-chlorophenyl)-N-[(2S)-1-hydroxypropan-2-yl]pyrimidine-4-carboxamide]",IC50,Human AhR,0.64 µM
same,IC50,Mouse AhR,0.532 µM
"C[C@@H](CO)NC(=O)c1cc(-c2ccc(Cl)cc2)nc(-c2cccc(C#N)c2)n1 [Example 70, 6-(4-chlorophenyl)-2-(3-cyanophenyl)-N-[(2S)-1-hydroxypropan-2-yl]pyrimidine-4-carboxamide]",IC50,Human AhR,0.0193 µM
same,IC50,Mouse AhR,0.215 µM
